Like-named read-outs stand apart in the source and are kept apart here.
Assays:
[1] = biological target: T1, FLT3 (Homo sapiens, UniProt P36888); assay type: binding
T1 construct: made in house
T1 sequence (P36888 27-993): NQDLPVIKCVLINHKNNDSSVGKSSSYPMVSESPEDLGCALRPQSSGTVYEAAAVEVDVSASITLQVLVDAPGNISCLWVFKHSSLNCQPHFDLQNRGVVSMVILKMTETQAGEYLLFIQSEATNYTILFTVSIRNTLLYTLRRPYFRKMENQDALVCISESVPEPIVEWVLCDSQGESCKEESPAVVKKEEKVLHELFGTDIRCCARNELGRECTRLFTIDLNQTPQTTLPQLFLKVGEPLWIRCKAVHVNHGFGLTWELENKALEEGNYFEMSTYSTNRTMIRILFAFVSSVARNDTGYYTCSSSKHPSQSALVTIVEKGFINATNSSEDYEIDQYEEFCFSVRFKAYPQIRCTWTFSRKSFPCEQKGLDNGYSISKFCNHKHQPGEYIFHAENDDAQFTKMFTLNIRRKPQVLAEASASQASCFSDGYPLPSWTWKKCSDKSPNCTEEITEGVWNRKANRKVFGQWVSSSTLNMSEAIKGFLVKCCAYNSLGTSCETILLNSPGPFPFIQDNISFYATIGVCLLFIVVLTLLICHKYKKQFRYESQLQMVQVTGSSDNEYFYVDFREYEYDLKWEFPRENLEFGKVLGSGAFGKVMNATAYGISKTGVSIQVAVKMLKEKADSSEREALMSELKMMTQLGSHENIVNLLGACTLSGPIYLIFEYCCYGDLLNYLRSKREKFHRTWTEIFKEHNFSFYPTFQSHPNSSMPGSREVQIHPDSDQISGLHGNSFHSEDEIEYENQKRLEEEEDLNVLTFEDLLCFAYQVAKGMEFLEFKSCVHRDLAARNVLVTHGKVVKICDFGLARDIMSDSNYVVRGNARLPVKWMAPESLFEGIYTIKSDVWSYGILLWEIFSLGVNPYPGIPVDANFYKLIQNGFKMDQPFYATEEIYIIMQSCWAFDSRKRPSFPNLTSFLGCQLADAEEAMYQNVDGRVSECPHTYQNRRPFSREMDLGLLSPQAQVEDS
Experimental: (§1) Cannabis flavonoids and their analogs were subjected to kinase inhibition assay. The compounds were first screened at a single concentration of 10 μM in the primary assay. […] To determine the kd or IC50 values, competition binding assays were established, authenticated and executed as described previously. […] See also, Karaman et al., “A Quantitative Analysis Of Kinase Inhibitor Selectivity”, Nat. Biotechnol. […] For most assays, kinases were fused to T7 phage strains (Fabian, supra) and for the other assays, kinases were produced in HEK-293 cells after which they were tagged with DNA for quantitative PCR detection. In general, full-length constructs were used for small, single domain kinases, and catalytic domain constructs for large multi-domain kinases. […] The liganded beads were blocked with excess biotin and washed with blocking buffer (SeaBlock (Pierce), 1% BSA, 0.05% Tween 20, 1 mM DTT) to remove unbound ligand and to reduce non-specific phage binding. […] All reactions were performed in polypropylene 384-well plates in a final volume of 0.04 ml. […] The kinase concentration in the eluates was measured by quantitative PCR. An illustration of the kinase interaction process is presented below. Kd/IC50 values were determined using a standard dose response curve using the hill equation. Curves were fitted using a non-linear least square fit with the Levenberg-Marquardt algorithm.

[2] = biological target: T2, FLT3(ITD) (Homo sapiens, UniProt P36888); assay type: binding
T2 construct: In general, full-length constructs were used for small, single domain kinases, and catalytic domain constructs for large multi-domain kinases; fused on or other part: T7 phage fusion or DNA tag for qPCR detection (general statement)
T2 sequence (P36888 1-993): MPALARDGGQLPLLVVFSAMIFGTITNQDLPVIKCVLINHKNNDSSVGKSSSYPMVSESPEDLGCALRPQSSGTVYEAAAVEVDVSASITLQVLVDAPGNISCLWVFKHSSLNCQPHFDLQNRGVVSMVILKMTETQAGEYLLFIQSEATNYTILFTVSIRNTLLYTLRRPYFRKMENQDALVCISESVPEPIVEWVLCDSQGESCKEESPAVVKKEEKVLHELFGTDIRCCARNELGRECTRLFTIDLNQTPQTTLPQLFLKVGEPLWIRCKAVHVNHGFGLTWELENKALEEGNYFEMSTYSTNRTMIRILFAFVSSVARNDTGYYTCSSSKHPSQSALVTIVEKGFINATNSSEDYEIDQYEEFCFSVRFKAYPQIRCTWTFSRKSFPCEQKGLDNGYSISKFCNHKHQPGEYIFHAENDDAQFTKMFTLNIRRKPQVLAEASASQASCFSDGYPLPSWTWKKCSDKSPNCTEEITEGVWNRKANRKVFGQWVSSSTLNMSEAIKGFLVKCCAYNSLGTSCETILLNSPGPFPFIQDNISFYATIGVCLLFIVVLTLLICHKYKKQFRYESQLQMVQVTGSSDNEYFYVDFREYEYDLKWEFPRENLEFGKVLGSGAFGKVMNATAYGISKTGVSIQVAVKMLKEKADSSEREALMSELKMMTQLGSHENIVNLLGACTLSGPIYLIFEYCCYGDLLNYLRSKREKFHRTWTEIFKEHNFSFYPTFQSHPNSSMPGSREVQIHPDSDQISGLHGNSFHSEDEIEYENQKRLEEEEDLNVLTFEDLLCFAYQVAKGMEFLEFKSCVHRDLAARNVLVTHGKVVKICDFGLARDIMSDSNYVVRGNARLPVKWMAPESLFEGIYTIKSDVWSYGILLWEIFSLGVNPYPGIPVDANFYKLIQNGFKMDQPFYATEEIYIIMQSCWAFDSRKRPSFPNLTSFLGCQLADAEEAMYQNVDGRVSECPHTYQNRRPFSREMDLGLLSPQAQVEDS
Experimental: as §1

[3] = Table 1 kinase panel, read-out: IC50 (nM) FLT3
[4] = Table 1 kinase panel, read-out: IC50 (nM) FLT3(ITD)
[5] = Table 4, read-out: Acute Myeloid Leukemia Kinases FLT3 IC50
[6] = Table 4, read-out: Acute Myeloid Leukemia Kinases FLT3-ITD IC50

Structure (SMILES)	IC50 [1, 3] [nM]	IC50 [2, 4] [nM]	IC50 [1, 5] [nM]	IC50 [2, 6] [nM]
COc1cc(-c2cc(=O)c3c(O)c(C/C=C(\C)CCC=C(C)C)c(O)cc3o2)ccc1O [FBL-03A]	> 20000	> 20000	–	–
COc1cc(-c2cc(=O)c3c(O)c(CC=C(C)C)c(O)cc3o2)ccc1O [FBL-03B]	41.9	57	–	–
COc1cc(-c2cc(=O)c3c(O)cc(O)c(C/C=C(\C)CCC=C(C)C)c3o2)ccc1O [FBL-03C]	> 20000	> 20000	–	–
COc1ccc(-c2cc(=O)c3c(O)c(C/C=C(\C)CCC=C(C)C)c(O)cc3o2)cc1OC [FBL-03D]	> 30000	> 30000	–	–
COc1cc(-c2cc(=O)c3c(O)cc(O)c(CC=C(C)C)c3o2)ccc1O [FBL-03G]	44	< 1000	–	–
COc1ccc(C2CC(=O)c3c(O)cc(O)cc3O2)cc1O (stereo not drawn) [FBLGS-74]	–	–	16600	9090
O=c1cc(-c2ccccc2)oc2cc(O)cc(O)c12 [FBLGS-75]	–	–	220	91
Cc1cc2oc(-c3cccc(N)c3)cc(=O)c2c([N+](=O)[O-])c1C [FBLGS-76]	–	–	870	750
O=c1cc(-c2ccc(O)c(O)c2)oc2cc(O)cc(O)c12 [FBLGS-77]	–	–	1320	799
COc1cc(O)c2c(=O)c(O)c(-c3ccc(O)c(O)c3)oc2c1 [FBLGS-78]	–	–	307	345
COc1cc(O)c2c(=O)c(O)c(-c3ccc(O)c(O)c3)oc2c1 [FBLGS-79]	–	–	25	84
COc1cc(O)c2c(=O)c(O)c(-c3ccc(O)c(OC)c3)oc2c1 [FBLGS-80]	–	–	60	84
COc1cc(-c2oc3cc(O)ccc3c(=O)c2O)ccc1O [FBLGS-81]	–	–	1.9	3.8
O=C1CC(c2ccc(O)c(O)c2)Oc2cc(O)cc(O)c21 (stereo not drawn) [FBLGS-82]	–	–	17400	12100
O=c1c(O)c(-c2ccc(O)c(O)c2)oc2cc(O)ccc12 [FBLGS-83]	–	–	578	180
O=c1c(O)c(-c2ccc(O)c(O)c2)oc2cc(O)cc(O)c12 [FBLGS-84]	–	–	822	453
COc1cc(-c2cc(=O)c3c(O)c(OC)c(OC)cc3o2)ccc1O [FBLGS-85]	–	–	50	57
COc1cc(-c2cc(=O)c3c(O)c(OC)c(O)cc3o2)ccc1O [FBLGS-86]	–	–	74	45
